Results as given in patent US11214803B2, “Modulators of YAP1 expression” (Ionis Pharmaceuticals, Inc., priority 2019, dated 2022).
Strand notation (5' to 3'): a small letter for the sugar, then the base; units joined by * are phosphorothioate-linked, units joined directly phosphodiester-linked; [ ] holds rarer units or linkages, { } end groups; capitals alone tell only the bases. e = 2'-O-(2-methoxyethyl) (MOE); k = constrained ethyl (cEt); [5mC] = 5-methylcytosine; d = 2'-deoxy (DNA); m = 2'-O-methyl

How the values were obtained:
Assay type in all cases: cell-based
[1] = system: Yap1 mRNA; test: Dose-dependent inhibition of human Yap1 in SNU-449 cells (Example 9, RTS36584); settings: free uptake; for % UTC (Yap1 mRNA): approximately 48 hours; for IC50: linear regression on a log/linear plot
Procedure: Modified oligonucleotides described in the studies above were tested at various doses in SNU-449 cells. Cultured SNU-449 cells at a density of 10,000 cells per well were treated using free uptake with modified oligonucleotides diluted to concentrations described in the tables below. After approximately 48 hours, Yap1 mRNA levels were measured as previously described using the Human Yap1 primer-probe set RTS36584. Yap1 mRNA levels were normalized to total RNA content, as measured by RIBOGREEN®. Results are presented in the tables below as percent control of the amount of Yap1 mRNA relative to untreated control cells (% UTC). IC50s were calculated using a linear regression on a log/linear plot of the data in excel.

[2] = system: Yap1 mRNA; test: Antisense inhibition of human Yap1 in SNU-449 cells by modified oligonucleotides, single dose (Example 5, RTS36584)
In short: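 SNU-449 cells (10,000/well) took up 2,000 nM oligonucleotide by free uptake for about 48 h. Yap1 mRNA was measured by qRT-PCR with primer probe set RTS36584 and normalised to RIBOGREEN total RNA. Values are % of untreated control; asterisked oligos target the amplicon region.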

[3] = system: Yap1 mRNA; test: Antisense inhibition of human Yap1 in A-431 cells by cEt gapmers, single dose (Example 3, RTS36584)
In short: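 A-431 cells were treated by free uptake with 2,000 nM modified oligonucleotide (3-10-3 cEt gapmers, full phosphorothioate, 5-methylcytosines) for about 48 hours. Yap1 mRNA was quantified by real-time RT-PCR, normalized to RiboGreen total RNA, and expressed as % of untreated control; asterisked values mark oligonucleotides targeting the amplicon region.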

[4] = system: Yap1 mRNA; test: Dose-dependent inhibition of human Yap1 in A-431 cells (Example 8, 10,000 cells per well, RTS4814); settings: for Yap1 mRNA, % UTC: A-431 cells, 10,000 cells per well; for IC50 / % UTC (Yap1 mRNA): A-431 cells
In short: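 Yap1 mRNA, normalized to RIBOGREEN total RNA and expressed as % untreated control, was read with RTS4814 about 48 h after free-uptake oligonucleotide treatment of A-431 cells at 10,000 cells/well. IC50 derived by linear regression of log/linear data.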

[5] = Yap1 mRNA, percent of untreated control, modified oligonucleotides targeting SEQ ID NO: 1 and 2, Table 47
[6] = Table 13, A-431 cells, 5,000 cells per well, free uptake, 2,000 nM modified oligonucleotide, approx. 48 hours, RTS36584, normalized to RIBOGREEN, Yap1 mRNA relative to untreated control cells
[7] = 31.3 nM, free uptake, approximately 48 hours, RTS4814
[8] = 125.0 nM, free uptake, approximately 48 hours, RTS4814
[9] = 500.0 nM, free uptake, approximately 48 hours, RTS4814
[10] = 2000.00 nM, free uptake, approximately 48 hours, RTS4814
[11] = free uptake, approximately 48 hours, RTS4814, linear regression on log/linear plot
[12] = Table 34, Yap1 mRNA as percent of untreated control, 3-10-3 cEt gapmers targeting SEQ ID NO: 1 and 2, single dose
[13] = Table 35, Yap1 mRNA as percent of untreated control, 3-10-3 cEt gapmers targeting SEQ ID NO: 1 and 2, single dose

| Substance | % UTC (Yap1 mRNA) ([1]; 31.3 nM) [% UTC] | % UTC (Yap1 mRNA) ([1]; 125.0 nM) [% UTC] | % UTC (Yap1 mRNA) ([1]; 500.0 nM) [% UTC] | % UTC (Yap1 mRNA) ([1]; 2000.00 nM) [% UTC] | IC50 [1] [nM] | other results |
| --- | --- | --- | --- | --- | --- | --- |
| 1198529 (kT*kT*dA*dA*dA*dG*dT*dG*dT*dA*dT*eG*kT*e[5mC]*kA*eG; antisense) [compound 1198529] | 86 | 69 | 37 | 16 | 300 |  |
| 1095481 (kT*kG*dA*dG*dG*dT*dA*dT*dA*dA*d[5mC]*dT*kG*eG*kG*e[5mC]) [compound 1095481] | 73 | 47 | 16 | 8 | 100 |  |
| 1197176 (kT*kG*kT*d[5mC]*dT*d[5mC]*dA*dT*dG*d[5mC]*d[5mC]*dT*dT*kA*kT*kA; antisense) [compound 1197176] | 66 | 37 | 19 | 6 | 100 |  |
| 1197312 (kT*kG*kT*dA*mU*dG*dT*d[5mC]*dA*dG*dA*dA*dG*kA*kG*kT; antisense) [compound 1197312] | 101 | 58 | 34 | 11 | 300 |  |
| 1198904 (kT*kA*dT*dT*dA*dG*dA*dG*dT*dA*dT*kG*dT*kG*dG*k[5mC]; antisense) [compound 1198904] | 78 | 36 | 23 | 10 | 100 |  |
| 1198638 (kA*kG*dA*dG*dT*dA*dT*dG*dT*dG*dG*d[5mC]*kA*eA*kT*eA; antisense) [compound 1198638] | 70 | 42 | 13 | 4 | 100 |  |
| 1197178 (kA*kA*kT*dT*dG*dT*d[5mC]*dT*d[5mC]*dA*dT*dG*d[5mC]*k[5mC]*kT*kT; antisense) [compound 1197178] | 64 | 36 | 14 | 4 | 100 |  |
| 1200806 (kT*kG*kA*dG*dG*mU*dA*dT*dA*dA*d[5mC]*dT*dG*kG*kG*k[5mC]; antisense) [compound 1200806] | 91 | 54 | 34 | 18 | 200 |  |
| 1198286 (kA*kA*kT*dT*dG*dT*d[5mC]*dT*d[5mC]*dA*dT*dG*k[5mC]*e[5mC]*kT*eT; antisense) [compound 1198286] | 64 | 45 | 22 | 8 | 100 |  |
| 1200794 (kA*kG*kA*dG*dT*mA*dT*dG*dT*dG*dG*d[5mC]*dA*kA*kT*kA; antisense) [compound 1200794] | 85 | 59 | 31 | 13 | 200 |  |
| 1198352 (kT*kG*kT*dA*dT*dG*dT*d[5mC]*dA*dG*dA*dA*kG*eA*kG*eT; antisense) [compound 1198352] | 58 | 29 | 10 | 3 | 40 |  |
| 1198832 (kG*k[5mC]*dA*d[5mC]*dT*dT*dT*dT*dA*d[5mC]*dA*kT*eT*kA*eG*kG; antisense) [compound 1198832] | 77 | 53 | 23 | 13 | 100 |  |
| 1198502 (kA*kG*dA*dT*dT*dT*dA*dG*dG*dA*dT*eG*k[5mC]*eA*kT*eG; antisense) [compound 1198502] | 76 | 50 | 29 | 15 | 200 |  |
| 1198557 (kA*kT*kA*dT*dT*dA*dG*dA*dG*dT*dA*dT*kG*kT*kG*eG; antisense) [compound 1198557] | 81 | 52 | 26 | 11 | 200 |  |
| 1197179 (kT*kG*kG*dA*dA*dA*dT*dT*dG*dT*d[5mC]*dT*d[5mC]*kA*kT*kG; antisense) [compound 1197179] | 58 | 38 | 17 | 7 | 100 |  |
| 958500 (kT*k[5mC]*kT*dA*dT*dA*dT*dT*dA*dG*dA*dG*dT*kA*kT*kG) [Compound 958500] |  |  |  |  |  | YAP1 (% UT) [2, 5]: 53 % UT; YAP1 (% UTC) [3, 6]: 5 % UTC |
| 958590 (kA*kG*kG*dT*dA*dT*dA*dA*d[5mC]*dT*dG*dG*dG*k[5mC]*kA*kA) [Compound 958590] |  |  |  |  |  | YAP1 (% UT) ([2]; Table 48, Yap1 mRNA level relative to untreated control, modified oligonucleotides targeting SEQ ID NO.: 1 and 2): 18 % UT; YAP1 (% UTC) [3, 6]: 2 % UTC |
| 958497 (kA*kT*kA*dT*dG*dG*dA*dA*dA*dT*dT*dG*dT*k[5mC]*kT*k[5mC]) [Compound 958497] |  |  |  |  |  | YAP1 (% UT) [2, 5]: 20 % UT; YAP1 (% UTC) ([3]; Table 10, A-431 cells, 5,000 cells per well, free uptake, 2,000 nM oligonucleotide, approx. 48 hours, primer probe set RTS36584, Yap1 mRNA normalized to RIBOGREEN, percent of untreated control): 1 % UTC |
| 1074420 (kG*kA*kT*dT*d[5mC]*dT*dT*dT*dA*dG*dA*dG*d[5mC]*k[5mC]*kA*kA; antisense) [compound 1074420] |  |  |  |  |  | Yap1 mRNA, % UTC [4, 7]: 38 % UTC; Yap1 mRNA, % UTC [4, 8]: 8 % UTC; Yap1 mRNA, % UTC [4, 9]: 3 % UTC; Yap1 mRNA, % UTC [4, 10]: 2 % UTC; IC50 [4, 11]: < 20 nM; YAP1 (% UTC) [3, 12]: 2 % UTC |
| 1076430 (k[5mC]*kG*kT*dT*dA*dT*dA*dA*dG*dA*dT*dG*dT*kG*k[5mC]*kT; antisense) [compound 1076430] |  |  |  |  |  | Yap1 mRNA, % UTC [4, 7]: 42 % UTC; Yap1 mRNA, % UTC [4, 8]: 14 % UTC; Yap1 mRNA, % UTC [4, 9]: 6 % UTC; Yap1 mRNA, % UTC [4, 10]: 4 % UTC; IC50 [4, 11]: < 20 nM; YAP1 (% UTC) ([3]; Table 28, Yap1 mRNA as percent of untreated control, 3-10-3 cEt gapmers targeting SEQ ID NO.: 1, and 2): 4 % UTC |
| 1074452 (kT*kG*kA*d[5mC]*dT*dA*dA*dT*dG*dA*dT*dA*dG*k[5mC]*kA*k[5mC]; antisense) [compound 1074452] |  |  |  |  |  | % UTC (Yap1 mRNA) ([4]; 31.3 nM): 88 % UTC; % UTC (Yap1 mRNA) ([4]; 125.0 nM): 28 % UTC; % UTC (Yap1 mRNA) ([4]; 500.0 nM): 9 % UTC; % UTC (Yap1 mRNA) ([4]; 2000.00 nM): 5 % UTC; IC50 ([4]; Yap1 mRNA): 100 nM; YAP1 (% UTC) [3, 12]: 3 % UTC |
| 1075084 (antisense kT*kG*kA*d[5mC]*dA*dA*d[5mC]*dA*dA*d[5mC]*dA*d[5mC]*dT*k[5mC]*k[5mC]*kT) [compound 1075084] |  |  |  |  |  | Yap1 mRNA, % UTC [4, 7]: 103 % UTC; Yap1 mRNA, % UTC [4, 8]: 72 % UTC; Yap1 mRNA, % UTC [4, 9]: 37 % UTC; Yap1 mRNA, % UTC [4, 10]: 14 % UTC; IC50 [4, 11]: 300 nM; YAP1 (% UTC) ([3]; Table 26, Yap1 mRNA by 3-10-3 cEt gapmers targeting SEQ ID NO.: 1, and 2, percent of untreated control): 9 % UTC |
| 1076085 (kA*k[5mC]*kT*dA*dA*dT*dA*dG*dG*d[5mC]*d[5mC]*dA*dT*k[5mC]*kT*kG; antisense) [compound 1076085] |  |  |  |  |  | % UTC (Yap1 mRNA) ([4]; 31.3 nM): 70 % UTC; % UTC (Yap1 mRNA) ([4]; 125.0 nM): 34 % UTC; % UTC (Yap1 mRNA) ([4]; 500.0 nM): 14 % UTC; % UTC (Yap1 mRNA) ([4]; 2000.00 nM): 9 % UTC; IC50 ([4]; Yap1 mRNA): 100 nM; YAP1 (% UTC) [3, 13]: 7 % UTC |
| 1074485 (kT*kT*k[5mC]*dA*d[5mC]*dT*dA*dA*dT*dA*dT*dG*dG*kT*k[5mC]*kA; antisense) [compound 1074485] |  |  |  |  |  | % UTC (Yap1 mRNA) ([4]; 31.3 nM): 47 % UTC; % UTC (Yap1 mRNA) ([4]; 125.0 nM): 14 % UTC; % UTC (Yap1 mRNA) ([4]; 500.0 nM): 5 % UTC; % UTC (Yap1 mRNA) ([4]; 2000.00 nM): 3 % UTC; IC50 ([4]; Yap1 mRNA): < 20 nM; YAP1 (% UTC) [3, 13]: 4 % UTC |
